Assay results published in US20210290513A1, “COMPOSITION COMPRISING KAKKALIDE” (LG HOUSEHOLD & HEALTH CARE LTD., priority 2020, published 2021).

What was measured:
Format in all cases: cell-based
B-16 mouse melanoma cell = test: Total melanin amount in mouse melanoma cell culture (brightening effect); details: B16, 72 h, B-16 melanoma cells cultured three days, vs negative control (DMSO), read-out: Inhibition rate (%) of melanin production
Method: In order to evaluate a brightening effect according to inhibition of melanogenesis, an extract was added to a mouse melanoma cell (B-16 mouse melanoma cell) culture, and the total amount of melanin was measured according to a method described in Lotan R. et al. (Cancer Res. 40:3345-3350, 1980). For this experiment, toxicity with respect to the mouse melanoma cells was first evaluated, and the brightening effect was evaluated at a concentration not inducing toxicity. Dimethyl sulfoxide (DMSO) was used as a negative control, and arbutin was used as a positive control.
Specifically, A compound of Formula 1 was added to a medium of each sample so that the final concentration of the compound of Formula 1 is 1 ppm, 10 ppm, 100 ppm, or 500 ppm, and Daidzein was also added to the medium so that the final concentration of Daidzein is 1 ppm, 10 ppm, 100 ppm, or 500 ppm. Arbutin was added to the medium so that the final concentration was 100 ppm. In each of the mediums, melanoma cells were cultured for three days. Subsequently, the cells were treated with trypsin, detached from the culture plate, and centrifuged, and then melanin was extracted. The detached cells were boiled for 10 minutes by adding 1 ml of a sodium hydroxide solution (1 N concentration) so that melanin was dissolved, and by measuring an absorbance at 400 nm using a spectrophotometer, the amount of melanin production was measured.
The amount of melanin was measured by a method of indicating absorbance per unit cell count (1×10^6 cells), The amount of melanin production in each experimental group with respect to the negative control was calculated as a relative value, and the value obtained by subtracting the amount of melanin production in each experimental group from 100% of the melanin production amount in the negative control group was expressed as the inhibition rate (%). The experiment was performed three times for each sample, and averages of measurements were obtained.

A. niger = test: Minimum inhibitory concentration, serial dilution method; details: PDB medium, about 10^6/well
Method: (§1) This experiment was carried out by a serial dilution method and a method of measuring a minimum inhibitory concentration (MIC), using an MHB2 medium (for bacteria) or a PDB medium (for fungi). The bacteria or fungi were inoculated at about 10^6/well.

E. coli = test: as above; details: MHB2 medium, about 10^6/well
Method: as §1

P. aeruginosa = test: as above; details: MHB2 medium, about 10^6/well
Method: as §1

Pityrosporum ovale = test: as above; details: about 10^6/well
Method: as §1

C. albicans = test: as above; details: PDB medium, about 10^6/well
Method: as §1

S. aureus = test: as above; details: MHB2 medium, about 10^6/well
Method: as §1

AQP3 = AQP3 mRNA expression in human keratinocytes (real-time quantitative PCR); details: HaCaT, negative control normalized to 1.0
Method: (§2) Human keratinocytes (HaCaT) were dispensed into a 6-well cell culture plate at 2×10^5 cells/well and cultured for 24 hours in a DMEM medium containing 10% fetal bovine serum (FBS). The medium was replaced with a DMEM medium without 10% FBS and calcium (Ca^2+), and the cultured cells were treated with the compound of Chemical Formula 1, which had been diluted with a medium, for 24 hours. After the 24 hours had passed, the cells were recovered and then washed with a cold phosphate buffer solution (PBS), and total RNA was extracted using an RNeasy mini kit (Qiagen, Germany). A reverse transcription reaction was performed using RNA and a cDNA Synthesis kit (PhileKorea, Korea). The synthesized cDNA was diluted with water after being quantified, and the same amount thereof was used for all reactions. HAS2, HAS3, and AQP3 primers from a TaqMan® Universal Master Mix II and TaqMan® Gene Expression Assays (Thermo Fisher, USA) were used. Real-time quantitative polymerase chain reaction (PCR) was carried out using a StepOnePlus® Real-time PCR System (Applied Biosystems, USA). The experimental results were obtained through calculation performed by a ΔΔCt method based on a housekeeping gene glyceraldehyde-3-phosphate dehydrogenase (GAPDH). The levels of HAS2, HAS3, and AQP3 gene expression in each sample were quantified based on the mRNA expression level (normalized to 1.0) of the negative control to which the sample was not added, and the results are shown in Table 3. As a positive control, 10 ng/ml EGF recombinant human protein (Life Technologies, USA) was used.

[1] = tested on: Wnt/β-catenin signaling pathway; test: Wnt/β-catenin signaling pathway activation, TOPflash luciferase reporter in human dermal papilla cells; details: untreated control = 100
Method: The effect of the compound of Chemical Formula 1 on the activation of the Wnt/β-catenin signaling pathway was investigated using TOPflash (T-cell factor reporter plasmid) Kit (Millipore, USA). Human dermal papilla cells were inoculated into a 24-well plate at 2×10^5/well, cultured for 24 hours, treated with the compound of Chemical Formula 1 so that the concentration was 10 μg/ml, and then additionally cultured for 15 hours, and firefly luciferase activity was subsequently measured using a dual luciferase assay kit (Promega, USA).
In order to accurately measure the luciferase activity, the experiment was performed three times for each sample, an increase rate (%) was calculated as a ratio of activity relative to that of a control was calculated, and the results are shown in Table 5. The negative control was an untreated group. As a positive control, 6-bromoindirubin-3′-oxime (BIO) was used, and BIO is a material known to inhibit GSK-3 in the Wnt signaling system.

[2] = tested on: type I collagen synthesis in human-derived fibroblasts; test: Type I collagen synthesis in human-derived fibroblasts (PICP EIA kit); details: for Increase rate (%) of collagen synthesis: relative to negative control; for Amount of type I collagen production: negative control 151.4
Method: A sample was added to a human-derived fibroblast culture medium to evaluate the effect of promoting type I collagen synthesis at the cellular level. The synthesized collagen was quantified using a Procollagen Type I C-Peptide Enzyme Immunoassay kit (PICP EIA kit). In order to measure the amount of collagen synthesis, a compound of Formula 1 was added to the fibroblast culture medium (Dulbecco's Modified Eagle Medium (DMEM)) so that the final concentration of compound of Formula 1 was 0.1 ppm, 1 ppm, or 10 ppm in each medium, and Genistein was also added to the fibroblast culture medium (Dulbecco's Modified Eagle Medium (DMEM)) so that final concentration of Genistein was 0.1 ppm, 1 ppm, or 10 ppm. After culturing for 48 hours, and then the culture medium was taken, and, by using the PICP EIA kit, the degree of type I collagen synthesis at each concentration was measured at 450 nm using a spectrophotometer. In order to compare the effect, the culture medium of fibroblasts without sample treatment was used as a negative control, and 10 ng/ml TGF-β was used as a positive control, and the degrees of collagen synthesis therein were measured in the same manner as for testing an added sample. A rate of increase in collagen synthesis was calculated as a ratio of the amount of collagen production relative to that of the negative control, and the results are shown in Table 2. The experiment was performed three times for each sample, and averages of measurements were obtained.

dermal papilla cells = test: Dermal papilla cell proliferation (CCK-8); details: 100 ppm, CCK-8 on day 5, Control (DMEM) = 1.00
Method: This experiment was performed using the following media 1) to 3):
1) DMEM (10% FBS, 1% P/S)
2) Depletion medium: 5% charcoal-stripped, FBS-containing, phenol red-free DMEM
3) Serum-free (SF) medium: DMEM (1% P/S).
On days 0 to 5, the following various experiments were performed to confirm a dermal papilla cell proliferation effect.
Day 0: At 10 a.m., cells were seeded (5,000 cells/well)
Day 1: At 10 a.m., after changing the depletion medium, cells were cultured for 24 hours.
Day 2: At 10 a.m., CCK-8 was measured (average initial value: 0.586) before the cells were treated with a sample, and subsequently, cells were treated with a sample.

HAS3 = HAS3 mRNA expression in human keratinocytes (real-time quantitative PCR); details: HaCaT, negative control normalized to 1.0
Method: as §2

HAS2 = HAS2 mRNA expression in human keratinocytes (real-time quantitative PCR); details: HaCaT, negative control normalized to 1.0
Method: as §2

`O=c1c(-c2ccc(O)cc2)coc2cc(O)ccc12` [Daidzein] gave an inhibition at 1 ppm (B-16 mouse melanoma cell) of 18.7%, an inhibition at 10 ppm (B-16 mouse melanoma cell) of 16.4% and an inhibition at 100 ppm (B-16 mouse melanoma cell) of 20.8%. For the same compound, the inhibition at 500 ppm (B-16 mouse melanoma cell) was 30.2%.
For `COc1ccc(-c2coc3cc(O[C@@H]4O[C@H](CO[C@@H]5OC[C@@H](O)[C@H](O)[C@H]5O)[C@@H](O)[C@H](O)[C@H]4O)c(OC)c(O)c3c2=O)cc1` [Chemical Formula 1, kakkalide], the “Minimum inhibitory concentration (%) A. niger” value (A. niger) was 0.1%, the “Minimum inhibitory concentration (%) E. coli” value (E. coli) was 0.05% and the “Minimum inhibitory concentration (%) P. aeruginosa” value (P. aeruginosa) was 0.05%. For the same compound, the “Minimum inhibitory concentration (%) Pityrosporum ovale” value (Pityrosporum ovale) was 0.0003%, the “Minimum inhibitory concentration (%) C. albicans” value (C. albicans) was 0.05% and the “Minimum inhibitory concentration (%) S. aureus” value (S. aureus) was 0.01%. The “Increased AQP3 mRNA amount” value (AQP3; 10 ppm, 24 hours) was 1.75, the “Increased AQP3 mRNA amount” value (AQP3; 100 ppm, 24 hours) was 4.17 and the “Increase rate (%) of luciferase activity” value ([1]; 10 μg/ml, 15 hours) was 160%. The “Increase rate (%) of collagen synthesis” value ([2]; 0.1 ppm, 48 hours) was 4.19%, the “Amount of type I collagen production” value ([2]; 0.1 ppm, 48 hours) was 157.74 ng/mL and the “Increase rate (%) of collagen synthesis” value ([2]; 1 ppm, 48 hours) was 12.56%. For the same compound, the “Amount of type I collagen production” value ([2]; 1 ppm, 48 hours) was 170.41 ng/mL, the “Increase rate (%) of collagen synthesis” value ([2]; 10 ppm, 48 hours) was 16.07% and the “Amount of type I collagen production” value ([2]; 10 ppm, 48 hours) was 175.72 ng/mL. The “Average (ratio) dermal papilla cell proliferation” value (dermal papilla cells) was 1.34, the “Increased HAS3 mRNA amount” value (HAS3; 10 ppm, 24 hours) was 3.97 and the “Increased HAS3 mRNA amount” value (HAS3; 100 ppm, 24 hours) was 5.23. The “Increased HAS2 mRNA amount” value (HAS2; 10 ppm, 24 hours) was 2.28, the “Increased HAS2 mRNA amount” value (HAS2; 100 ppm, 24 hours) was 6.64 and the inhibition at 1 ppm (B-16 mouse melanoma cell) was 35.3%. For the same compound, the inhibition at 10 ppm (B-16 mouse melanoma cell) was 48%, the inhibition at 100 ppm (B-16 mouse melanoma cell) was 57.6% and the inhibition at 500 ppm (B-16 mouse melanoma cell) was 68.4%.
zinc pyrithione was tested, and the “Minimum inhibitory concentration (%) A. niger” value (A. niger) was 0.02%, the “Minimum inhibitory concentration (%) E. coli” value (E. coli) was 0.002% and the “Minimum inhibitory concentration (%) P. aeruginosa” value (P. aeruginosa) was 0.002%. For the same compound, the “Minimum inhibitory concentration (%) Pityrosporum ovale” value (Pityrosporum ovale) was 0.0002%, the “Minimum inhibitory concentration (%) C. albicans” value (C. albicans) was 0.02% and the “Minimum inhibitory concentration (%) S. aureus” value (S. aureus) was 0.001%.
`O=c1c(-c2ccc(O)cc2)coc2cc(O)cc(O)c12` [Genistein] was tested, and the “Minimum inhibitory concentration (%) A. niger” value (A. niger) was 0.2%, the “Minimum inhibitory concentration (%) E. coli” value (E. coli) was 0.1% and the “Minimum inhibitory concentration (%) P. aeruginosa” value (P. aeruginosa) was 0.07%. The “Minimum inhibitory concentration (%) Pityrosporum ovale” value (Pityrosporum ovale) was 0.0005%, the “Minimum inhibitory concentration (%) C. albicans” value (C. albicans) was 0.08% and the “Minimum inhibitory concentration (%) S. aureus” value (S. aureus) was 0.03%. For the same compound, the “Increased AQP3 mRNA amount” value (AQP3; 10 ppm, 24 hours) was 1.09, the “Increased AQP3 mRNA amount” value (AQP3; 100 ppm, 24 hours) was 2.47 and the “Increase rate (%) of luciferase activity” value ([1]; 10 μg/ml, 15 hours) was 140%. For the same compound, the “Increase rate (%) of collagen synthesis” value ([2]; 0.1 ppm, 48 hours) was 2.53%, the “Amount of type I collagen production” value ([2]; 0.1 ppm, 48 hours) was 155.24 ng/mL and the “Increase rate (%) of collagen synthesis” value ([2]; 1 ppm, 48 hours) was 4.85%. The “Amount of type I collagen production” value ([2]; 1 ppm, 48 hours) was 158.75 ng/mL, the “Increase rate (%) of collagen synthesis” value ([2]; 10 ppm, 48 hours) was 8.59% and the “Amount of type I collagen production” value ([2]; 10 ppm, 48 hours) was 165.93 ng/mL. For the same compound, the “Average (ratio) dermal papilla cell proliferation” value (dermal papilla cells) was 1.10, the “Increased HAS3 mRNA amount” value (HAS3; 10 ppm, 24 hours) was 2.86 and the “Increased HAS3 mRNA amount” value (HAS3; 100 ppm, 24 hours) was 3.34. For the same compound, the “Increased HAS2 mRNA amount” value (HAS2; 10 ppm, 24 hours) was 1.06 and the “Increased HAS2 mRNA amount” value (HAS2; 100 ppm, 24 hours) was 2.74.
For TGF-β, the “Increase rate (%) of collagen synthesis” value ([2]; 10 ng/ml, positive control) was 13.84% and the “Amount of type I collagen production” value ([2]; 10 ng/ml, positive control) was 172.35 ng/mL.
Compound `OC[C@H]1O[C@@H](Oc2ccc(O)cc2)[C@H](O)[C@@H](O)[C@@H]1O` [Arbutin, arbutin] has an inhibition at 100 ppm (B-16 mouse melanoma cell) of 56%.
`O=C1Nc2cc(Br)ccc2/C1=C1/Nc2ccccc2/C1=N\O` [BIO, 6-bromoindirubin-3′-oxime] was tested, and the “Increase rate (%) of luciferase activity” value ([1]; 1 μM, positive control) was 153%.
For “EGF: EGF recombinant human protein (Life Technologies, USA), positive control”, the “Increased AQP3 mRNA amount” value (AQP3; 10 ng/ml, positive control) was 1.09, the “Increased HAS3 mRNA amount” value (HAS3; 10 ng/ml, positive control) was 5.24 and the “Increased HAS2 mRNA amount” value (HAS2; 10 ng/ml, positive control) was 16.42.
